Experimental data taken from a melting point compilation (Tetko et al.; mined from patent text by program, amines drawn as free bases though some values may be those of a salt).

Compound | melting point
O=C(C1CCCC1)N1c2ccccc2CCC1CN1CCN(c2cccc3[nH]ccc23)CC1 (configuration not stated) | 150 to 153 °C
O=C1Nc2ccccc2C12COc1ccc3c(c12)N(Cc1ccccn1)ON3 (configuration not stated) | 180 to 182 °C
NC(C=C(Cc1ccccc1)CP(=O)(O)O)C(=O)O (configuration not stated) | 196 to 198 °C
CN1C(c2ccc(C#N)cc2)=NC(C(F)(F)F)(C(F)(F)F)C1NC(=O)c1ccc(CF)cc1 (configuration not stated) | 189 to 190 °C
COc1ccc(C=NO)cc1OCCCCCc1ccccc1 | 65 to 67 °C
CC[C@@]12C[C@@](C)(O)[C@](O)(c3ccccc3)C[C@H]1CCc1cc(OCC(=O)O)ccc12 | 190 to 191 °C
O=C(O)CCCCCCCCCCn1nnnc1S | 95 to 98 °C
NC(=NN=Cc1c(Cl)cccc1Cl)Nc1c(Cl)cccc1Cl | 230 to 231 °C
O=C(NCC(c1ccccc1)c1ccccc1)N1CCC(=C(c2ccccc2)c2ccccc2)CC1 | 158 to 160 °C
Cc1cccc(C)c1-n1cc(C#N)c(=O)[nH]c1=O | 267 to 269 °C
O=Cc1ccc(OC(F)F)c(OCC2CC2)c1 | 115 to 116 °C
FC(F)(F)c1cc(-c2ccc(Cl)cc2)nc2c(-c3ccncc3)ncn12 | 290 °C
O=C(Nc1cccc(NC2=CC(=O)c3ccccc3C2=O)c1)c1ccccc1 | 185 °C
OCc1cnoc1-c1ccc(F)cc1 | 41 to 42 °C
N#Cc1ccc(Oc2ccccc2)cc1C#N | 98 to 100 °C
OCCCNC1=Nc2ccccc2C1(O)c1ccccc1 (configuration not stated) | 215 to 217 °C
CNC(=N[N+](=O)[O-])N(C)Cc1ccc(Cl)nc1 | 136 to 137 °C
N#Cc1cccc(OCc2cccc(OCc3ccc4ccccc4n3)c2)c1 | 86 to 87 °C
O=CNN(C1=NCCS1)c1ccccc1 | 140 to 141 °C
O=c1[nH]c2cc(Cl)ccc2c(=O)c(-c2ccc([N+](=O)[O-])cc2)c1O | 310 to 312 °C
NCCCC(N)(C(=O)O)C(F)F (configuration not stated) | 183 °C

Compound | melting point
CN1CCC(=C2c3cc(Br)n(C)c3CCn3ccnc32)CC1 | 179 °C
O=c1[nH]nc(-c2ccccc2Nc2cccc(C(F)(F)F)c2)s1 | 157 to 160 °C
ClCCCCOc1cccc(OCCCCCl)c1 | 85 to 86 °C
CNC(=O)N1N=C(c2ccc(N)c(C)c2)c2cc(Cl)ccc2C=C1C | 210 to 212 °C
O=C1N(CC(O)CO)c2ccccc2C12COc1cc3c(cc12)OCCO3 (configuration not stated) | 179 to 181 °C
Cn1cc(C2(c3c4n(c5ccccc35)CCCCC4)CC(=O)NC2=O)c2ccccc21 (configuration not stated) | > 300 °C
CC(O)(C#Cc1ccc(S(=O)(=O)N2CCCC2)cc1)C(F)(F)F (configuration not stated) | 140 to 143 °C
NC(Cc1ccccc1)C(O)C(N)Cc1ccccc1 (configuration not stated) | 106 to 107 °C
O=CN1CCC2=C(CCCC2)C1Cc1ccc(O)cc1 (configuration not stated) | 154 to 156 °C
C[C@@H]1S[C@@H](C(=O)Nc2ccc(CN3C(=O)CN(C)C3=O)cc2)Cc2cc3c(cc2C1=O)OCO3 | 228 to 230 °C
COc1cc2c(=O)n(CCCn3ccnc3)c3c4ccccc4[nH]c(=O)c3c2cc1OC | 288 to 290 °C
Cc1cccc2c(=O)n3c(nc12)C(=O)c1ccccc1-3 | 247 to 248 °C
CCOC(=O)c1ccc(C=CC2(O)CN3CCC2CC3)cc1 (configuration not stated) | 160 to 162 °C
Cc1ccc(-c2c([N+](=O)[O-])oc3ccccc23)cc1C | 125 to 133 °C
CCc1cnc2c(C#N)cnn2c1-c1cccc(C(F)(F)F)c1 | 135 to 137 °C
Cc1nnc2nc(-c3cccc(C(F)(F)F)c3)ccn12 | 232 to 234 °C
Cn1c(COc2ccc(CC3SC(=O)N(C(c4ccccc4)(c4ccccc4)c4ccccc4)C3=O)cc2)nc2cc(Cl)cnc21 (configuration not stated) | 82 to 84 °C
O=C(O)COc1ccc(OCc2ccccc2)cc1OCc1ccccc1 | 72 °C
CN1CCN(C(=O)c2ccc(-c3cnc4c(c3)N(Cc3cc(F)c(F)cc3F)C(=O)CN4)cc2)CC1 | 238 °C
O=P1(c2ccc(Oc3ccccc3)cc2)c2ccccc2CN1c1ccccc1 (configuration not stated) | 207 to 208 °C

Now from value to molecule:

melting point | Compound
126 °C | COC(=O)c1cc(C(=O)c2cccc(Cl)c2)cn1C
132 to 134 °C | CCOC(=O)C(CC=C1CCN(c2ccccc2)C1=O)Nc1cc(Cl)ccc1I (configuration not stated)
185 to 187 °C | CC(=O)N1C(=O)NC2(C1=O)C(=O)N(Cc1ccc(Cl)c(Cl)c1)c1ccccc12 (configuration not stated)
145 to 146 °C | COc1cc(OC)cc(-c2cc(=O)c3ccc(OCC(O)CNC(C)(C)C)cc3o2)c1 (configuration not stated)
292 to 294 °C | CC1(n2cc(C(=O)O)c(=O)c3cc(F)c(F)c(F)c32)CC1
138 to 140 °C | CC(=O)n1c(C)c(-c2ccccc2)c(=O)n1-c1ncccn1
67 °C | Nc1cccc2snnc12
89 °C | C[C@H]1CC(=O)N1c1ccc(C(=O)OCc2ccccc2)cc1
54 to 55 °C | CCCc1cc(Cl)cc2nc(Cc3ccc(OC)c(OC4CCCC4)c3)oc12
185 to 187 °C | COc1ccc(S(=O)(=O)C(C)(Cc2ccc3ccccc3c2)C(=O)NO)cc1 (configuration not stated)
192 °C | COC(=O)c1ccc(-c2ccc(I)c(O)c2)cc1
123 to 127 °C | CC1(C)[C@@H](CNC(=O)c2ccccc2F)CC[C@@]1(C)NCC(=O)N1C[C@@H](F)C[C@H]1C#N
150 to 154 °C | CCOC(=O)C1=C(NC(=O)Nc2cc(C(=O)OC(C)C)c(Br)cc2F)CCC1
234 to 240 °C | Cc1nc(N)nc(N)c1-c1cc(NS(C)(=O)=O)ccc1Cl
178 °C | Nc1cccc([C@H]2C[C@H]2NC(=O)Nc2ccc(Cl)cn2)c1 (racemic)
204 to 205 °C | CC(C)N1CCC(CNc2ccc(NS(C)(=O)=O)cc2C(=O)Nc2ccc(Cl)cn2)CC1
135 °C | O=C(Cl)c1c2ccccc2nc2ccccc12
215 to 220 °C | COc1cc2c(NC3=CC(=O)C(Cl)=CC3=O)ncnc2cc1OCC1CCCCO1 (configuration not stated)
> 320 °C | CC/C=C\Cn1c(=S)sc2c(=O)[nH]c(N)nc21
160 to 163 °C | CCCNC(=O)n1c(=O)cc2n1C(c1cccc([N+](=O)[O-])c1)C(C(=O)OC(C)C)=C(C)N2 (configuration not stated)
246 to 249 °C | CCCCCc1cc2c(nc(O)n2CC2CCNCC2)c(N)n1

melting point | Compound
120 to 126 °C | Cc1ccc(NC(=O)C(C)(C)C)c(-c2cccc(Br)n2)c1
200 to 204 °C | CCCCCCCC(=O)Nc1ccc(O)c(C(=O)O)c1
285 °C | CC(C)c1csc2[nH]cc(C#N)c(=O)c12
105 to 106 °C | CCN(CC=C(Cl)Cl)C(=O)Nc1ccc(Cl)c(Cl)c1
138 to 145 °C | CC[C@@H](Nc1nc(NCc2cccnc2)c2ncn(C(C)C)c2n1)C(C)(C)O
77 to 79 °C | Cc1nn2ccccc2c1C=O
124 to 127 °C | CN(C)CC=NC(=O)c1cnn2c(-c3cccnc3)ccnc12
86 to 87 °C | CC(=O)Oc1cccc(C=Cc2ccc3ccccc3n2)c1
191 to 192 °C | COc1ccc(C(=O)Nc2ccc(Cl)cc2)cc1N
< 20 °C | CCOC(=O)C(C)(C)OC1(CCCNC(=O)c2cc(Cl)ccc2OC)C=CC(c2ccccc2)=CC1 (configuration not stated)
206 to 208 °C | CCCCNC(=O)Nc1ccc(OC)cc1C(=O)NCC1CCN(C(c2ccccc2)c2ccccc2)CC1
216 to 218 °C | Cc1nc[nH]c1CSCCNc1nc(C)c(-c2ccccc2)c(=O)[nH]1
68 to 70 °C | COC(=O)C(Cl)=Cc1ccc(OC)cc1
221 to 223 °C | O=C(O)c1cn([C@@H]2C[C@@H]2F)c2c(Cl)c(N3CC4=C(CNC4)C3)c(F)cc2c1=O
97 to 99.5 °C | CC(C)(C)OC(=O)N(C(=O)OC(C)(C)C)C(Cc1c[nH]cn1)C(=O)OCc1ccccc1 (configuration not stated)
230 °C | CCn1nc(C(C)C)c2c1C(=O)NCC(c1ccc(O)cc1)=N2
> 275 °C | CCOC(=O)Nc1nc(-c2ccccc2)c(-c2nc3ccccc3c(=O)n2-c2ccc(C)cc2)s1
215 °C | COC(=O)c1cc2cc(OC)c(OC)cc2cn1
96 to 98 °C | O=C(Cl)C(Oc1cccc(C(F)(F)F)c1)c1ccc(Cl)cc1 (configuration not stated)
92 to 94 °C | CC(C)N(CCO)C(=O)c1noc2ccccc12
103 to 105 °C | CCOC(=O)c1cc(=O)c(Cl)c(-c2ccccc2)o1

melting point | Compound
186 to 188 °C | COc1cccc(Cl)c1C1Cc2c(ccn2C)C2C(=O)NC(=O)C12 (configuration not stated)
163 to 164 °C | COc1ccc2c(c1)C(C)(N)C(=O)N2c1ccc(F)cc1 (configuration not stated)
59 to 61 °C | CC(C)COc1ccccc1OCCOS(C)(=O)=O
175 °C | Cc1nc2c(Cl)c(NC(=O)c3cc(Cl)ccc3Cl)ccc2s1
164 to 166 °C | COc1ccc2cc(-c3ccc(S(C)=O)cc3)ccc2n1 (configuration not stated)
95 to 99 °C | COc1ccc(-c2noc(C)c2-c2ccc(OC)cc2)cc1
134 to 136 °C | COC(=O)C=Cc1ccc2c(ccn2S(=O)(=O)c2ccccc2)c1
98 to 101 °C | C#CCN(C(C)=O)c1cccc(C(=O)C=CN(C)C)c1
124 to 126 °C | COC(=O)/C=C(\C)C(C)Sc1nc(N)cc(Cl)n1 (configuration not stated)
298 to 301 °C | COc1cc2ccn3c(=O)c(C(=O)O)cnc3c2cc1OC
152 to 153 °C | CC(C)n1ccnc1S(=O)(=O)c1ccc(O)cc1
129 to 130 °C | CCCCC1c2cc(NC(=O)CC(C)(C)C)c(C)c(C)c2OC1(C)C (configuration not stated)
294 °C | NS(=O)(=O)c1ccc(-c2noc(-c3cnn4c(C5CC5)cc(-c5ccc(Cl)cc5)nc34)n2)s1
129 to 131 °C | Cc1ccc2oc(=O)c(C(=O)O)c(-c3ccccc3)c2c1
72 to 74 °C | CCOC(=O)C(C)Oc1cc(-n2c(=O)cc(C(F)(F)F)n(C)c2=O)c(F)cc1Cl (configuration not stated)
143 to 147 °C | COc1cc(Cc2nc(NC(C)C)c3c(C)c(C#N)sc3n2)cc(OC)c1OC
219 to 221 °C | COc1cc(OC)c2c(=O)[nH]c(-c3cc(C)c(OCCN4C(=O)CN(C(C)C)C4=O)c(C)c3)nc2c1
157 to 159 °C | CC(C)(CNc1ccnc2cc(Cl)ccc12)NCc1ccncc1
184 °C | COC(=O)c1sccc1Nc1ccccc1[N+](=O)[O-]
